Test results published in US8758777B2, “Pharmaceutical compositions comprising water-soluble sulfonate-protected nanoparticles and uses thereof” (Bar-Ilan University, priority 2010, dated 2014).

System: wild-type HSV-1 McIntyre strain
Assay: Antiviral assay (plaque reduction) in Vero cells
Assay type: cell-based, herpes simplex virus-1 (HSV-1)
Conditions: 50-1000 μg/ml; 80 PFU; 48 hours
Method: Antiviral assay: The virus used was the wild-type HSV-1 McIntyre strain. For the inhibition experiments, 7×10^4 Vero cells/well were grown in 24 well plates.
Cell monolayers were infected with HSV-1 in the presence or absence of the nanoparticles, as described in the antiviral assay in the Experimental, and observed for the presence of plaques after 48 hours. Plaque formation was obtained by the addition of γ-globulins, which prevents virus dissemination while retaining cell-to-cell spread. FIG. 3A (panels a-h) show images of the cell cultures after 48 hours.

O=S(=O)([O-])CCS.[Na+] [soluble MES, sodium 2-mercaptoethanesulfonate]
inhibition of virus infection (number of plaques and average size): completely ineffective
